Source: ChEMBL document CHEMBL1125556, “Fluoroquinolones: relationships between structural variations, mammalian cell cytotoxicity, and antimicrobial activity” (J Med Chem, 1992)
Values after ≈ are worked out from the molar mass of the structure shown.

What was measured:
V79 = experiment: Mammalian cell cytotoxicity test in chinese hamster V79 cells (clonogenic cytotoxicity); type: functional, cell-based
[1] = Antibacterial activity against five Gram-negative bacteria; type: functional
[2] = Cricetulus griseus, V79, read-out: IC50

Row | SMILES | IC50 (V79; [2]) [µg/mL] | MIC ([1]; read-out: MIC) [µg/mL] | IC50 (V79; v79) [µg/mL] | MIC [1] [µg/mL]
1 | Cc1c(F)c(N2CCC(N)C2)c(F)c2c1c(=O)c(C(=O)O)cn2C1CC1 (stereo unspecified) | 11 (≈ 30.3 µM) | 0.02 (≈ 0.055 µM) |  | 
2 | CC1(CN)CCN(c2cc3c(cc2F)c(=O)c(C(=O)O)cn3C2CC2)C1 (stereo unspecified) | 23 (≈ 64 µM) | 0.52 (≈ 1.45 µM) |  | 
3 | NC1CCN(c2c(F)cc3c(=O)c(C(=O)O)cn(C4CC4)c3c2F)CC1 | 23 (≈ 63.3 µM) | 0.2 (≈ 0.55 µM) |  | 
4 | COc1c(F)c(N2CCC(N)C2)c(Cl)c2c1c(=O)c(C(=O)O)cn2C1CC1 (stereo unspecified) | > 500 | 2.08 (≈ 5.25 µM) |  | 
5 | CC1CN(c2c(F)cc3c(=O)c(C(=O)O)cn(-c4ccc(F)cc4F)c3c2Cl)CCN1 (stereo unspecified) | > 500 | 2.07 (≈ 4.58 µM) |  | 
6 | CC1CN(c2nc3c(cc2F)c(=O)c(C(=O)O)cn3C2CC2)CC(C)N1 (stereo unspecified) | 250 (≈ 694 µM) | 0.17 (≈ 0.472 µM) |  | 
7 | CCNCC1CCN(c2c(F)cc3c(=O)c(C(=O)O)cn(CCO)c3c2F)C1 (stereo unspecified) | > 500 | 50 (≈ 126 µM) |  | 
8 | NC1CCN(c2c(F)c(F)c3c(=O)c(C(=O)O)cn(C4CC4)c3c2C(F)(F)F)C1 (stereo unspecified) | 190 (≈ 455 µM) | 25 (≈ 59.9 µM) |  | 
9 | CC1CN(c2c(F)cc3c(=O)c(C(=O)O)cn(C4CC4)c3c2C(F)(F)F)CCN1 (stereo unspecified) | 220 (≈ 532 µM) | 0.6 (≈ 1.45 µM) |  | 
10 | CCNCC1CCN(c2c(F)cc3c(=O)c(C(=O)O)cn(C4CC4)c3c2N)C1 (stereo unspecified) | 290 (≈ 747 µM) | 0.91 (≈ 2.34 µM) |  | 
11 | CC1CN(c2c(F)cc3c(=O)c(C(=O)O)cn(C4CC4)c3c2Cl)CC(C)N1 (stereo unspecified) | 140 (≈ 355 µM) | 0.23 (≈ 0.584 µM) |  | 
12 | CCNCC1CCN(c2c(F)cc3c(=O)c(C(=O)O)cn(CCF)c3c2F)C1 (stereo unspecified) | > 500 | 0.4 (≈ 1.01 µM) |  | 
13 | COc1c(N2CCC(C)(N)C2)c(F)cc2c(=O)c(C(=O)O)cn(-c3ccc(F)cc3F)c12 (stereo unspecified) | 250 (≈ 559 µM) | 0.46 (≈ 1.03 µM) |  | 
14 | CC1(CN)CCN(c2c(F)cc3c(=O)c(C(=O)O)cn(C4CC4)c3c2F)C1 (stereo unspecified) | 8 (≈ 21.2 µM) | 0.13 (≈ 0.344 µM) |  | 
15 | COc1c(N2CCC(N)C2)c(F)c(N)c2c(=O)c(C(=O)O)cn(C3CC3)c12 (stereo unspecified) | 100 (≈ 266 µM) | 0.11 (≈ 0.292 µM) |  | 
16 | CCNCC1CCN(c2c(F)cc3c(=O)c(C(=O)O)cn(C4CC4)c3c2F)C1 (stereo in doubt; 12) [PD-117558] | 11 (≈ 28.1 µM) | 0.05 (≈ 0.128 µM) |  | 
17 | CCNCC1CCN(c2cc3c(cc2F)c(=O)c(C(=O)O)cn3-c2ccc(F)cc2F)C1 (stereo in doubt; 17) |  |  | 190 (≈ 427 µM) | 0.8 (≈ 1.8 µM)
18 | NC1CCN(c2c(F)cc3c(=O)c(C(=O)O)cn(C4CC4)c3c2F)C1 (stereo in doubt; 21) | 30 (≈ 85.9 µM) | 0.04 (≈ 0.115 µM) |  | 
19 | NC1CCN(c2cc3c(cc2F)c(=O)c(C(=O)O)cn3C2CC2)C1 (stereo in doubt; 24a) | 72 (≈ 217 µM) | 0.09 (≈ 0.272 µM) |  | 

Row | SMILES | IC50 (V79; [2]) [µg/mL] | MIC ([1]; read-out: MIC) [µg/mL] | IC50 (V79; v79) [µg/mL] | MIC [1] [µg/mL]
20 | NC1CCN(c2c(F)cc3c(=O)c(C(=O)O)cn(C4CC4)c3c2F)C1 (stereo in doubt; 24b) |  |  | 30 (≈ 85.9 µM) | 0.04 (≈ 0.115 µM)
21 | NC1CCN(c2c(F)cc3c(=O)c(C(=O)O)cn(C4CC4)c3c2Cl)C1 (stereo in doubt; 24c) [CLINAFLOXACIN] | 26 (≈ 71.1 µM) | 0.03 (≈ 0.082 µM) |  | 
22 | COc1c(N2CCC(N)C2)c(F)cc2c(=O)c(C(=O)O)cn(C3CC3)c12 (stereo in doubt; 24d) |  | 0.07 (≈ 0.194 µM) | 45 (≈ 125 µM) | 
23 | NC1CCN(c2c(F)cc3c(=O)c(C(=O)O)cn(C4CC4)c3c2C(F)(F)F)C1 (stereo in doubt; 24e) |  |  | 300 (≈ 751 µM) | 0.2 (≈ 0.501 µM)
24 | CCNCC1CCN(c2cc3c(cc2F)c(=O)c(C(=O)O)cn3C2CC2)C1 (stereo in doubt; 26a) | 160 (≈ 428 µM) | 0.46 (≈ 1.23 µM) |  | 
25 | CCNCC1CCN(c2c(F)cc3c(=O)c(C(=O)O)cn(C4CC4)c3c2Cl)C1 (stereo in doubt; 26c) |  | 0.14 (≈ 0.343 µM) | 11 (≈ 27 µM) | 
26 | CCNCC1CCN(c2c(F)cc3c(=O)c(C(=O)O)cn(C4CC4)c3c2OC)C1 (stereo in doubt; 26d) | 22 (≈ 54.5 µM) | 0.26 (≈ 0.644 µM) |  | 
27 | CCNCC1CCN(c2cc3c(cc2F)c(=O)c(C(=O)O)cn3-c2ccc(F)cc2F)C1 (stereo in doubt; 36b) | 190 (≈ 427 µM) | 0.8 (≈ 1.8 µM) |  | 
28 | NC1CCN(c2cc3c(cc2F)c(=O)c(C(=O)O)cn3C2CC2)C1 (stereo in doubt; 44) |  |  | 72 (≈ 217 µM) | 0.09 (≈ 0.272 µM)
29 | NC1CCN(c2c(F)cc3c(=O)c(C(=O)O)cn(C4CC4)c3c2C(F)(F)F)C1 (stereo in doubt; 45) | 300 (≈ 751 µM) | 0.2 (≈ 0.501 µM) |  | 
30 | NC1CCN(c2c(F)cc3c(=O)c(C(=O)O)cn(C4CC4)c3c2Cl)C1 (stereo in doubt; 46) [CLINAFLOXACIN] |  |  | 26 (≈ 71.1 µM) | 0.03 (≈ 0.082 µM)
31 | COc1c(N2CCC(N)C2)c(F)cc2c(=O)c(C(=O)O)cn(C3CC3)c12 (stereo in doubt; 47) |  |  | 44 (≈ 122 µM) | 0.07 (≈ 0.194 µM)
32 | CCNCC1CCN(c2c(F)cc3c(=O)c(C(=O)O)cn(C4CC4)c3c2OC)C1 (stereo in doubt; 68) |  |  | 22 (≈ 54.5 µM) | 0.26 (≈ 0.644 µM)
33 | O=C(O)c1cn(C2CC2)c2cc(N3CCNCC3)c(F)cc2c1=O [CIPROFLOXACIN] | 380 (≈ 1150 µM) | 0.1 (≈ 0.302 µM) | 380 (≈ 1150 µM) | 0.1 (≈ 0.302 µM)
34 | CN1CCN(c2c(F)cc3c(=O)c(C(=O)O)cn(CCF)c3c2F)CC1 [FLEROXACIN] | > 500 | 0.35 (≈ 0.948 µM) |  | 
35 | CCNCC1CCN(c2c(F)cc3c(=O)c(C(=O)O)cn(CC)c3c2F)C1 (stereo unspecified) [MERAFLOXACIN] | 160 (≈ 422 µM) | 0.2 (≈ 0.527 µM) |  | 
36 | CCn1cc(C(=O)O)c(=O)c2cc(F)c(N3CCNCC3)cc21 [NORFLOXACIN] | > 500 | 0.06 (≈ 0.188 µM) |  | 
37 | CC1COc2c(N3CCN(C)CC3)c(F)cc3c(=O)c(C(=O)O)cn1c23 (stereo unspecified) [OFLOXACIN] | > 500 | 0.2 (≈ 0.553 µM) |  | 
